Reference: patent US20220040263A1, “COMPANION DIAGNOSTIC FOR COMBINATION LENALIDOMIDE AND ERYTHROPOIETIN TREATMENT” (H. Lee Moffitt Cancer Center and Research Institute, Inc., priority 2016, published 2022)

What was measured:
[1] = target: T1, rhu-CD45 (Homo sapiens, UniProt P08575); experiment: BIOMOL Green CD45 Tyrosine Phosphatase Assay; assay type: biochemical; conditions: recombinant CD45, substrate pp60c-Src, read-out: inhibition of CD45 PTP activity
T1 construct: purchased Calbiochem
T1 sequence (P08575 26-1306): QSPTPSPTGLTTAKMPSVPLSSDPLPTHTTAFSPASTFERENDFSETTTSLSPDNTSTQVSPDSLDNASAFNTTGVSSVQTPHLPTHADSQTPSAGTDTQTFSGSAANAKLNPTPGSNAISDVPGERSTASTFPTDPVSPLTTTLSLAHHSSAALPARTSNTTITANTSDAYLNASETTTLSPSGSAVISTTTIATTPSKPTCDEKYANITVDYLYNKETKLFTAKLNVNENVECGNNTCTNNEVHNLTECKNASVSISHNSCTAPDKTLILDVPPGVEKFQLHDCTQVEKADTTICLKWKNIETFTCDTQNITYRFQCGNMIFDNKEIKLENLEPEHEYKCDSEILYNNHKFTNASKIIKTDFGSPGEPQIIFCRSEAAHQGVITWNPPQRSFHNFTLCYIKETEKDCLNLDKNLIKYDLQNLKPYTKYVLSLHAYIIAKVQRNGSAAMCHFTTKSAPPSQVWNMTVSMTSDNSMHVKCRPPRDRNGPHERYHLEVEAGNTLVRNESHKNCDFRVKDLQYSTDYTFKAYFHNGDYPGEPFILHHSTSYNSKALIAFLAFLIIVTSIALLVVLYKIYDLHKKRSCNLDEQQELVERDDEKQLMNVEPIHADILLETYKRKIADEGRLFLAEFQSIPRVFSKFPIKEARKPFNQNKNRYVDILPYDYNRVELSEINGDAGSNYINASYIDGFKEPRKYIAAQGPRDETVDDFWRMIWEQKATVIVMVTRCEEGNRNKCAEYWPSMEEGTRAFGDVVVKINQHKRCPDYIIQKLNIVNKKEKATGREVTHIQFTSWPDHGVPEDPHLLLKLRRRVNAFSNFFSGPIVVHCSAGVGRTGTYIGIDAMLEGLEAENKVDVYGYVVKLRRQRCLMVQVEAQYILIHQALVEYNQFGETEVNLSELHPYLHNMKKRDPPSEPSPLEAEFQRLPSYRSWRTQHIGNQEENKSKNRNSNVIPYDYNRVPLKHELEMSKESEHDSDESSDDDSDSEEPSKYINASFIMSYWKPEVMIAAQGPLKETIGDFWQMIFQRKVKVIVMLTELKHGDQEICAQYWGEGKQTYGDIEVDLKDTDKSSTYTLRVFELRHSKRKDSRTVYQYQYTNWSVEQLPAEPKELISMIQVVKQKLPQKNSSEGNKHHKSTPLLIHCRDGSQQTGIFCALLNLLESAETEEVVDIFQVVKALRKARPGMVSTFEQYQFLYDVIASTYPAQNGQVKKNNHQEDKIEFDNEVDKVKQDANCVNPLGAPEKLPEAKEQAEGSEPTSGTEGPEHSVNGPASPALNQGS
Description: CD45-specific PTP activity was assayed as outlined in the BIOMOL Green™ CD45 Tyrosine Phosphatase Assay Kit. Briefly, 75 U of rhu-CD45 (Calbiochem) was incubated for 1H at 37° C. with the indicated inhibitors (1 μM CC5013 and thalidomide, 100 μM Na Orthovanadate, and 50 μM RWJ-60475 (CD45-specific PTP inhibitor) in 1× assay buffer. The substrate pp60c-Src was added at 200 μM and incubated for 1H at 37° C. Samples were read on a plate reader at 620 nm. Percent PTP activity was calculated according to the equation (OD of test sample/OD of control)×100.
This notion is in agreement with findings that lenalidomide suppressed cytosolic release of Csk that is dependent upon dephosphorylation of the Cbp/PAG Csk docking site (Tyr314) by CD45. To determine if lenalidomide inhibits CD45 phosphatase, recombinant CD45 PTP inhibition by lenalidomide and thalidomide was compared to the pan-PTP inhibitor sodium orthovanadate and the CD45-selective inhibitor, RWJ-60475 using the Biomol CD45 phosphatase assay. […] [FIG. 7].

[2] = tested on: Csk; experiment: Csk and phospho-Lyn507 in UT7 cells by Western immunoblot; assay type: cell-based; conditions: lenalidomide alone or combined with EPO
Description: Serum starved UT7 cells were treated with either vehicle alone (control), CC5013 (2 hours), EPO (30 minutes), or CC5013 followed by addition of EPO at the concentrations indicated. Cells were lysed and assayed for β-actin (Sigma), phospho-Lyn507, total Lyn and Csk (Cell Signaling) by Western immunoblot as described previously. Protein loading was normalized to β-actin, and immunoblot signals of phosphorylated Lyn were normalized to total Lyn and actin by band densitometry.
The Lyn/Src signal response is inhibited through both Csk phosphorylation of the C-terminal tyrosine residue enabled by SFK phosphorylation of the Csk-binding protein (Csk/Pag), and by the action of the CD45 PTP that dephosphorylatse the SFK activation loop tyrosine. There were minor changes in phosphorylation of the C-terminal tyrosine of Src and Lyn kinases despite significant increases in phosphorylation of the Src activation loop tyrosine [FIGS. 5 and 6]. A minor reduction in C-terminal tyrosyl phosphorylation relative to total Lyn was associated with a decrease in total Csk that was apparent with treatment with either lenalidomide alone or when combined with EPO [FIG. 6].

[3] = tested on: MDS patients without 5q deletions; conditions: cited from earlier work
[4] = tested on: c-Src; experiment: c-Src activation (p-Src416, p-Src527, Bcl-XL) in UT7 cells by Western immunoblot; assay type: cell-based
Source text: FIGS. 5A and 5B show lenalidomide potentiates c-Src activation. […] Cells were lysed and assayed for β-actin (Sigma), or Src, p-Src416, p-Src 527 and Bcl-XL (Cell Signaling) by Western immunoblot. Protein loading was normalized to β-actin. Relative Src activation in FIG. 5B represents the ratio of p-Src416 (activation site phosphorylation) to p-Src527 (C-terminal inhibitory p-tyrosine).
To confirm that EPO-R signal potentiation by lenalidomide is associated with activation of Src and Lyn kinases, Src activation was evaluated using phospho-tyrosine specific antibodies that recognize either the activation loop tyrosine (Tyr416) or the C-terminal inhibitory tyrosine (Tyr527) of c-Src. Lenalidomide alone increased phosphorylation of Tyr416 by 50% compared to the vehicle treated control [FIG. 5].

inhibition at 1 µM [1]: ~50%
SMILES: Nc1cccc2c1CN(C1CCC(=O)NC1=O)C2=O (stereo not drawn) [lenalidomide, 3-(4-amino-1-oxo-1,3-dihydro-2H-isoindol-2-yl)piperidine-2,6-dione]
total Csk [2]: decrease
patients who benefit from lenalidomide therapy [3]: Approximately 25%
increase in phosphorylation of Src Tyr416 compared to the vehicle treated control ([4]; lenalidomide alone): 50%
Src activation compared to the vehicle control ([4]; lenalidomide combined with EPO, supra-additive): ~3 fold
EPO-dependent induction of Bcl-XL ([4]; lenalidomide pre-treatment): augmented
